Laboratory results: patent US8906928B2, “Substituted pyrazolo-pyrrolo-pyridine-dione compounds” (ArQule, Inc., priority 2009, dated 2014)

Assays:
Format in all cases: cell-based
[1] = test system: PC-3; experiment: MTS assay (cell growth inhibition), PC-3; details: PC-3 cells, 72 hours incubation with test compound; concentration not given
Protocol: (§1) Cells were maintained at 37° C., 5% CO2 in DMEM media supplemented with 1% fetal bovine serum, penicillin/streptomycin and fungizone (Invitrogen). Cells were seeded into 96-well tissue culture plates at 3000 per well and cultured at 37° C. for 18 hours. Test compounds were dissolved and diluted to 300× in DMSO then diluted 1:40 in DMEM. Cells were incubated with test compounds for 72 hours followed by incubation with tetrazolium compound (3-(4,5-dimethylthiazol-2-yl)-5-(3-carboxymethoxyphenyl)-2-(4-sulfophenyl)-2H-tetrazolium, inner salt; MTS) and the electron coupling reagent, phenazine methosulfate (PMS) for 4 hours. […] The ability of compounds to inhibit cell growth in this assay is correlated with the reduction of dehydrogenase enzyme activity found in metabolically active cells. The measurement of the absorbance of the formazan was assessed using an ENVISION™ (Perkin Elmer) microplate reader at 492 nm. The calculated IC50 value is the concentration of the test compound that causes a 50% decrease in the absorbance.

[2] = test system: NCI-H1299; experiment: MTS assay (cell growth inhibition), NCI-H1299; details: NCI-H1299 cells, 72 hours incubation with test compound; concentration not given
Protocol: as §1

[3] = test system: PACA-2; experiment: MTS assay (cell growth inhibition), PACA-2; details: PACA-2 cells, 72 hours incubation with test compound; concentration not given
Protocol: as §1

[4] = test system: MDA-MB; experiment: MTS assay (cell growth inhibition), MDA-MB; details: MDA-MB cells, 72 hours incubation with test compound; concentration not given
Protocol: as §1

[5] = test system: DLD-1; experiment: MTS assay (cell growth inhibition), DLD-1; details: DLD-1 cells, 72 hours incubation with test compound; concentration not given
Protocol: as §1

[6] = test system: Kato III; experiment: MTS assay (cell growth inhibition), Kato III; details: Kato III cells, 72 hours incubation with test compound; concentration not given
Protocol: as §1

SMILES | MTS CELL KILL DATA (% INHIBITION) PC-3 [1] | MTS CELL KILL DATA (% INHIBITION) NCI-H1299 [2] | MTS CELL KILL DATA (% INHIBITION) PACA-2 [3] | MTS CELL KILL DATA (% INHIBITION) MDA-MB [4] | MTS CELL KILL DATA (% INHIBITION) DLD-1 [5] | MTS CELL KILL DATA (% INHIBITION) Kato III [6]
CC(C)(C)c1ccc(CN2C(=O)c3cnc4[nH]ncc4c3C2=O)cc1 [Example 47, 7-(4-tert-butylbenzyl)pyrazolo[3,4-b]pyrrolo[3,4-d]pyridine-6,8(3H,7H)-dione,] | C (C = <50% INHIBITION) | C (C = <50% INHIBITION) | C (C = <50% INHIBITION) | C (C = <50% INHIBITION) | C (C = <50% INHIBITION) | C (C = <50% INHIBITION)
CC(CN1C(=O)c2cnc3[nH]ncc3c2C1=O)c1ccccc1 (stereo not drawn) [Example 96, 7-(2-phenylpropyl)pyrazolo[3,4-b]pyrrolo[3,4-d]pyridine-6,8(3H,7H)-dione] | C (C = <50% INHIBITION) | C (C = <50% INHIBITION) | C (C = <50% INHIBITION) | C (C = <50% INHIBITION) | C (C = <50% INHIBITION) | C (C = <50% INHIBITION)
CC(=O)Nc1cccc(-c2n[nH]c3ncc4c(c23)C(=O)N(CCc2ccccc2)C4=O)c1 [Example 167, N-{3-[6,8-dioxo-7-(2-phenylethyl)-3,6,7,8-tetrahydropyrazolo[3,4-b]pyrrolo[3,4-d]pyridin-1-yl]phenyl}acetamide] | A (A = 80-100% INHIBITION) | A (A = 80-100% INHIBITION) | A (A = 80-100% INHIBITION) | A (A = 80-100% INHIBITION) | A (A = 80-100% INHIBITION) | A (A = 80-100% INHIBITION)
NC(=O)c1ccc(-c2n[nH]c3ncc4c(c23)C(=O)N(CCc2ccccc2)C4=O)cc1 [Example 160, 4-[6,8-dioxo-7-(2-phenylethyl)-3,6,7,8-tetrahydropyrazolo[3,4-b]pyrrolo[3,4-d]pyridin-1-yl]benzamide] | A (A = 80-100% INHIBITION) | B (B = 50-79% INHIBITION) | A (A = 80-100% INHIBITION) | A (A = 80-100% INHIBITION) | A (A = 80-100% INHIBITION) | A (A = 80-100% INHIBITION)
Cc1ccc(CCN2C(=O)c3cnc4[nH]ncc4c3C2=O)cc1 [Example 69, 7-[2-(4-methylphenyl)ethyl]pyrazolo[3,4-b]pyrrolo[3,4-d]pyridine-6,8(3H,7H)-dione] | C (C = <50% INHIBITION) | C (C = <50% INHIBITION) | C (C = <50% INHIBITION) | C (C = <50% INHIBITION) | C (C = <50% INHIBITION) | C (C = <50% INHIBITION)
O=C1c2cnc3[nH]ncc3c2C(=O)N1CCc1c2ccccc2cc2ccccc12 [Example 129, 7-[2-(9-anthryl)ethyl]pyrazolo[3,4-b]pyrrolo[3,4-d]pyridine-6,8(3H,7H)-dione] | A (A = 80-100% INHIBITION) | C (C = <50% INHIBITION) | C (C = <50% INHIBITION) | A (A = 80-100% INHIBITION) | A (A = 80-100% INHIBITION) | C (C = <50% INHIBITION)
O=C1c2cnc3[nH]ncc3c2C(=O)N1Cc1ccccc1Br [Example 99, 7-(2-bromobenzyl)pyrazolo[3,4-b]pyrrolo[3,4-d]pyridine-6,8(3H,7H)-dione] | C (C = <50% INHIBITION) | C (C = <50% INHIBITION) | C (C = <50% INHIBITION) | C (C = <50% INHIBITION) | C (C = <50% INHIBITION) | C (C = <50% INHIBITION)
O=C1c2cnc3[nH]ncc3c2C(=O)N1CCOc1ccccc1Cl [Example 25, 7-[2-(2-chlorophenoxy)ethyl]pyrazolo[3,4-b]pyrrolo[3,4-d]pyridine-6,8(3H,7H)-dione] | A (A = 80-100% INHIBITION) | C (C = <50% INHIBITION) | C (C = <50% INHIBITION) | A (A = 80-100% INHIBITION) | C (C = <50% INHIBITION) | C (C = <50% INHIBITION)
CCCCOc1ccc(CN2C(=O)c3cnc4[nH]ncc4c3C2=O)cc1 [Example 15, 7-(4-butoxybenzyl)pyrazolo[3,4-b]pyrrolo[3,4-d]pyridine-6,8(3H,7H)-dione] | B (B = 50-79% INHIBITION) | C (C = <50% INHIBITION) | C (C = <50% INHIBITION) | A (A = 80-100% INHIBITION) | C (C = <50% INHIBITION) | C (C = <50% INHIBITION)
O=C1c2cnc3[nH]ncc3c2C(=O)N1CC1C[C@H]2CC[C@@H]1C2 (stereo partly drawn) [Example 35, 7-[(1R,4S)-bicyclo[2.2.1]hept-2-ylmethyl]pyrazolo[3,4-b]pyrrolo[3,4-d]pyridine-6,8(3H,7H)-dione] | C (C = <50% INHIBITION) | C (C = <50% INHIBITION) | C (C = <50% INHIBITION) | C (C = <50% INHIBITION) | C (C = <50% INHIBITION) | C (C = <50% INHIBITION)
O=C1c2cnc3[nH]ncc3c2C(=O)N1Cc1ccc(F)c(F)c1F [Example 20, 7-(2,3,4-trifluorobenzyl)pyrazolo[3,4-b]pyrrolo[3,4-d]pyrindine-6,8(3H,7H)-dione] | A (A = 80-100% INHIBITION) | C (C = <50% INHIBITION) | C (C = <50% INHIBITION) | A (A = 80-100% INHIBITION) | C (C = <50% INHIBITION) | C (C = <50% INHIBITION)
C[C@H](CN1C(=O)c2cnc3[nH]ncc3c2C1=O)c1ccccc1 [Example 121, 7-[(2S)-2-phenylpropyl]pyrazolo[3,4-b]pyrrolo[3,4-d]pyridine-6,8(3H,7H)-dione] | A (A = 80-100% INHIBITION) | C (C = <50% INHIBITION) | C (C = <50% INHIBITION) | B (B = 50-79% INHIBITION) | C (C = <50% INHIBITION) | C (C = <50% INHIBITION)
CCCC(C)CCN1C(=O)c2cnc3[nH]ncc3c2C1=O (stereo not drawn) [Example 114, 7-(3-methylhexyl)pyrazolo[3,4-b]pyrrolo[3,4-d]pyridine-6,8(3H,7H)-dione] | B (B = 50-79% INHIBITION) | C (C = <50% INHIBITION) | C (C = <50% INHIBITION) | A (A = 80-100% INHIBITION) | C (C = <50% INHIBITION) | C (C = <50% INHIBITION)
Cc1ccc(Cl)c(CN2C(=O)c3cnc4[nH]ncc4c3C2=O)c1F [Example 19, 7-(6-chloro-2-fluoro-3-methylbenzyl)pyrazolo[3,4-b]pyrrolo[3,4-d]pyridine-6,8(3H,7H)-dione] | A (A = 80-100% INHIBITION) | C (C = <50% INHIBITION) | C (C = <50% INHIBITION) | B (B = 50-79% INHIBITION) | C (C = <50% INHIBITION) | A (A = 80-100% INHIBITION)
CN(C)c1cccc(CN2C(=O)c3cnc4[nH]ncc4c3C2=O)c1 [Example 23] | C (C = <50% INHIBITION) | C (C = <50% INHIBITION) | C (C = <50% INHIBITION) | C (C = <50% INHIBITION) | C (C = <50% INHIBITION) | C (C = <50% INHIBITION)
O=C1c2cnc3[nH]ncc3c2C(=O)N1Cc1ccc(Cl)c(C(F)(F)F)c1 [Example 136, 7-[4-chloro-3-(trifluoromethyl)benzyl]pyrazolo[3,4-b]pyrrolo[3,4-d]pyridine-6,8(3H,7H)-dione] | C (C = <50% INHIBITION) | C (C = <50% INHIBITION) | C (C = <50% INHIBITION) | C (C = <50% INHIBITION) | C (C = <50% INHIBITION) | C (C = <50% INHIBITION)
